# Laboratory results from patent US6335443B1, “Chemical synthesis of exochelins” (Keystone Biomedical, Inc., priority 1998, dated 2002).
# Where “and” joins values, the source holds several entries; their conditions need not be identical. Identical values can stand only once.
# Columns and labels:
# ferri-Exochelin 758SM [1] = experiment: Capacity to remove iron from a different Exochelin species (Ferri-Exochelin 758SM); type: binding; conditions: for % Iron-Saturation 0 h / % of Calculated Iron-Saturation at Equilibrium 0 h / % of Calculated Iron-Saturation at Equilibrium 1 h / % Iron-Saturation 1 h: Table 1; for % Iron-Saturation 0 h / % Iron-Saturation 0 hour / % Iron-Saturation 1 hour / % Iron-Saturation 1 h: mixed with ferri-Exochelin 758SM
# Experimental: C. Capacity to Remove Iron from a Different Exochelin Species. To assess the affinity of the synthetic desferri-Exochelin 772SM(R) for iron, its capacity to remove iron from a different Exochelin species, ferri-Exochelin 758SM, was evaluated. The capacity of synthetic and native desferri-Exochelin 772SM(R) to remove iron from ferri-Exochelin 758SM was also evaluated and compared. Either native or synthetic desferri-Exochelin 772SM(R) were independently mixed with ferri-Exochelin 758SM. The amount of iron acquired in 1 hour by the desferri-Exochelins was assayed by subjecting the Exochelin to reverse-phase HPLC on a phenyl column, as described above, and the area under the 450 nm absorbance peak was measured. The amount of iron-Exochelin was then calculated using a conversion factor derived from assaying known amounts of ferri-Exochelin 772SM(R).
# C. Capacity to Remove Iron from a Different Exochelin Species. To assess the affinity of the synthetic desferri-Exochelin 772SM(S) for iron, its capacity to remove iron from a different exochelin species, ferri-Exochelin 758SM was evaluated. The capacity of synthetic desferri-Exochelin 772SM(S) and native desferri-Exochelin 772SM(R) to remove iron from ferri-Exochelin 758SM was also evaluated and compared. Either synthetic desferri-Exochelin 772SM(S) or native desferri-Exochelin 772SM(R) was mixed with ferri-Exochelin 758SM. The amount of iron acquired by the desferri-exochelins after 1 hour was assayed by subjecting the molecule to reverse-phase HPLC on a phenyl column, as described above, and the area under the 450 nm absorbance peak was measured. The amount of iron-exochelin was then calculated using a conversion factor derived from assaying known amounts of ferri-Exochelin 772SM(R) and ferri-Exochelin 772SM(S).
# ferri-Exochelin 758SM [2] = experiment: Capacity to remove iron from Ferri-Exochelin 758SM in the same vial (772SM(R) vs 772SM(S)); type: binding; conditions: Table 3, 772SM(R), 772SM(S) and 758SM in the same vial
# Experimental: To further assess the relative affinities of the stereoisomers desferri-Exochelin 772SM(R) and 772SM(S) for iron, their capacity to remove iron from a different exochelin species in the same vial were compared.
# In the experiment,15.6 μg of 1.1% iron-saturated synthetic Exochelin 772SM(R) and 17.4 μg of 1.0% iron-saturated synthetic Exochelin 772SM(S) was mixed with 13.5 μg of 100% iron-saturated native Exochelin 758SM.
# [3] = target: T1, 40% iron-saturated human transferrin (Homo sapiens, UniProt P02787); experiment: Capacity to remove iron from 40% iron-saturated human transferrin; type: biochemical; conditions: Fe3+:desferri-Exochelin 10:1, PBS pH 7.4
# T1 sequence (P02787 20-698): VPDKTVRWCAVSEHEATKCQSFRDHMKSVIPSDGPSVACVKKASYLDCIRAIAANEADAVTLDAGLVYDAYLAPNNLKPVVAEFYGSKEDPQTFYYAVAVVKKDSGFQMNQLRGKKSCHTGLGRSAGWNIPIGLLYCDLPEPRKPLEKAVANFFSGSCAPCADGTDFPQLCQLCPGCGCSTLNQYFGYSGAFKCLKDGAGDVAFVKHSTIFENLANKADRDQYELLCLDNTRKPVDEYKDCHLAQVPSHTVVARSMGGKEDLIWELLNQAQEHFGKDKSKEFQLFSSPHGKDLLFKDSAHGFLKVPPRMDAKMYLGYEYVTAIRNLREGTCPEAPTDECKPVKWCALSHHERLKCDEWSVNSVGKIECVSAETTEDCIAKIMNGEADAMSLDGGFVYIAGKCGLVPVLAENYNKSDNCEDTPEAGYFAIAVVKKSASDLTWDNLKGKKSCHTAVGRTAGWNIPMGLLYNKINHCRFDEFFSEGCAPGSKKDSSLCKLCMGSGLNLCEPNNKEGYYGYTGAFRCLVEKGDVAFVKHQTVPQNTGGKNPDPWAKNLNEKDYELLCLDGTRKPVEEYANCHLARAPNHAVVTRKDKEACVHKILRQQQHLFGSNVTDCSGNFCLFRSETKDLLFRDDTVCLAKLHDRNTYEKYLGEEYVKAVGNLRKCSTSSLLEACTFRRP
# Experimental: (§1) A. 40% Iron-Saturated Human Transferrin. To assess the capacity of the 3 different desferri-Exochelins to remove iron from 40% iron-saturated human transferrin, each of them was incubated for 1, 3, and 24 hours with 40% iron-saturated transferrin such that the ratio of Fe^3+: desferri-Exochelin equaled 10:1. The incubation was carried out in PBS, pH 7.4. Afterwards, the Exochelin and transferrin were separated from each other by centrifugation through a 10,000 dalton cut-off filter. The transferrin (mass 76,000 daltons) was completely excluded by this filter whereas 85% of the Exochelin (mass<1,000) was recovered in the filtrate. To determine the total amount of exochelin recovered, the exochelin in the filtrate was saturated with a 20:1 molar excess of ferric ammonium citrate and subjected to reverse-phase HPLC as described above. To determine the amount of iron-saturated Exochelin in the filtrate at each time point, the filtrate was subjected to reverse-phase HPLC without the addition of iron. The % iron-saturation was calculated as follows: [formula]
# [4] = target: human apotransferrin (<0.7% iron-saturated) (Homo sapiens, UniProt P02787); experiment: Control incubation with human apotransferrin (<0.7% iron-saturated); type: biochemical; conditions: apotransferrin 38 mg/ml
# Chain of human apotransferrin (<0.7% iron-saturated) (P02787 20-698): as above
# Experimental: as §1
# C. Apotransferrin (<0.7% Iron-Saturated Human Transferrin). As a control, the three desferri-exochelins were incubated for 3 h and 24 h with human apotransferrin (<0.7% iron-saturated) at a concentration of 38 mg/ml, the same concentration of protein as in the study utilizing 92% iron-saturated transferrin in B above. None of the desferri-exochelins acquired appreciable amounts of iron (Table 6).
# [5] = target: holo-transferrin (92% iron-saturated human transferrin) (Homo sapiens, UniProt P02787); experiment: Capacity to remove iron from holo-transferrin (92% iron-saturated human transferrin); type: biochemical; conditions: Fe3+:desferri-Exochelin 10:1
# Chain of holo-transferrin (92% iron-saturated human transferrin) (P02787 20-698): as above
# Experimental: as §1
# B. Holo-Transferrin (92% Iron-Saturated Human Transferrin). To assess the capacity of the 3 different desferri-Exochelins to remove iron from holo-transferrin (92% iron-saturated human transferring, each of them was incubated for 1, 3, and 24 h with 92% iron-saturated transferrin such that the ratio of Fe^3+: desferri-Exochelin equaled 10:1, as in the aforementioned study with 40% iron-saturated transferrin. The % iron-saturation of the Exochelins was assayed as above.
# [6] = target: T1, 40% iron-saturated human transferrin; experiment: Capacity to remove iron from 40% iron-saturated human transferrin; type: biochemical; conditions: Fe3+:desferri-Exochelin 10:1, PBS pH 7.4; remark: listed apart in the source
# [7] = listed as Native Desferri-Exochelin 772SM(R)
# [8] = listed as native desferri-exochelin 772SM(R)
# [9] = assuming comparable affinities for iron, 15.1 µg 772SM(R), Experiment I
# [10] = assuming comparable affinities for iron, 15.8 µg 772SM(R), Experiment II
substance,measurement,setting,value
"Exochelin 758SM [Native 758SM, reference compound]",% Iron-Saturation 0 h,ferri-Exochelin 758SM [1],100%
same,% Iron-Saturation 0 hour,"ferri-Exochelin 758SM [1]; Table 2, 0 hour",100%
same,% Iron-Saturation 1 hour,"ferri-Exochelin 758SM [1]; Table 2, with native desferri-Exochelin 772SM(R)",61.7%
same,% Iron-Saturation 1 hour,"ferri-Exochelin 758SM [1]; Table 2, with synthetic desferri-Exochelin 772SM(R)",55.9%
same,% Iron-Saturation 1 hour,"ferri-Exochelin 758SM [1]; Table 2, with synthetic desferri-Exochelin 772SM(S)",54.1%
same,% Iron-Saturation 0 hour,ferri-Exochelin 758SM [2]; 0 hour,100%
same,% Iron-Saturation 1 hour,ferri-Exochelin 758SM [2]; 1 hour,40.0%
"Exochelin 772SM(R) [Native 772SM(R), reference compound]",Iron-Saturation 1 h,[3]; 1 h,9.3%
same,Iron-Saturation 3 h,[3]; 3 h,13.8%
same,Iron-Saturation 24 h,[3]; [7],34.0%
same,Iron-Saturation 24 h,[3]; [8],34.0%
same,% of Calculated Iron-Saturation at Equilibrium 0 h,ferri-Exochelin 758SM [1]; [9],6.8%
same,% of Calculated Iron-Saturation at Equilibrium 0 h,ferri-Exochelin 758SM [1]; [10],5.0%
same,% Iron-Saturation 0 h,ferri-Exochelin 758SM [1],2.8%
same,% of Calculated Iron-Saturation at Equilibrium 1 h,ferri-Exochelin 758SM [1]; [9],85.8%
same,% of Calculated Iron-Saturation at Equilibrium 1 h,ferri-Exochelin 758SM [1]; [10],81.6%
same,% of Calculated Iron-Saturation at Equilibrium 1 h,"ferri-Exochelin 758SM [1]; assuming comparable affinities for iron, listed as native Exochelin 772SM(R)",85.8% and 81.6%
same,% Iron-Saturation 1 h,"ferri-Exochelin 758SM [1]; 15.1 µg 772SM(R), Experiment I",46.4%
same,% Iron-Saturation 1 h,"ferri-Exochelin 758SM [1]; 15.8 µg 772SM(R), Experiment II",45.6%
same,% Iron-Saturation 1 h,ferri-Exochelin 758SM [1]; listed as native Exochelin 772SM(R),46.4% and 45.6%
same,% of Calculated Iron-Saturation at Equilibrium 0 hour,"ferri-Exochelin 758SM [1]; Table 2, 0 hour, assuming comparable affinities for iron",5.4%
same,% Iron-Saturation 0 hour,"ferri-Exochelin 758SM [1]; Table 2, 0 hour",2.8%
same,% of Calculated Iron-Saturation at Equilibrium 1 hour,"ferri-Exochelin 758SM [1]; Table 2, assuming comparable affinities for iron",88.7%
same,% of Calculated Iron-Saturation at Equilibrium 1 hour,"ferri-Exochelin 758SM [1]; Table 2, assuming comparable affinities for iron, listed as native Exochelin 772SM(R)",88.7%
same,% Iron-Saturation 1 hour,ferri-Exochelin 758SM [1]; Table 2,46.2%
same,Iron-Saturation 0 h,[4]; 0 h,2.8%
same,Iron-Saturation 3 h,[4]; 3 h,9.3%
same,Iron-Saturation 24 h,[4]; 24 h,6.8%
same,Iron-Saturation 0 h,[5]; 0 h,2.8%
same,Iron-Saturation 1 h,[5]; 1 h,11.6%
same,Iron-Saturation 3 h,[5]; 3 h,19.0%
same,Iron-Saturation 24 h,[5]; [7],54.1%
same,Iron-Saturation 24 h,[5]; [8],54.1%
same,Iron-Saturation 0 h,[6],2.8%
